How the values were obtained:
LOX IMVI = test: Growth inhibition of human LOXIMVI cells after 48 hrs by sulforhodamine B assay; format: functional
DU-145 = test: Growth inhibition of human DU145 cells after 48 hrs by sulforhodamine B assay; format: functional; settings: DU-145, 48 h
NCI-H460 = test: Growth inhibition of human NCI-H460 cells after 48 hrs by sulforhodamine B assay; format: functional; settings: NCI-H460, 48 h
M14 = test: Growth inhibition of human M14 cells assessed as cell growth at 10 uM after 48 hrs by sulforhodamine B assay; format: functional; settings: M14, 48 h, read-out: Activity
SK-MEL-28 = test: Growth inhibition of human SK-MEL-28 cells after 48 hrs by sulforhodamine B assay; format: functional; settings: SK-MEL-28, 48 h
SK-MEL-2 = test: Growth inhibition of human SK-MEL-2 cells assessed as cell growth at 10 uM after 48 hrs by sulforhodamine B assay; format: functional; settings: SK-MEL-2, 48 h, read-out: Activity
MOLT-4 = test: Growth inhibition of human MOLT4 cells assessed as cell growth at 10 uM after 48 hrs by sulforhodamine B assay; format: functional; settings: MOLT-4, 48 h, read-out: Activity
PC-3 = test: Growth inhibition of human PC3 cells assessed as cell growth at 10 uM after 48 hrs by sulforhodamine B assay; format: functional; settings: PC-3, 48 h, read-out: Activity
UO-31 = test: Growth inhibition of human UO31 cells assessed as cell growth at 10 uM after 48 hrs by sulforhodamine B assay; format: functional; settings: UO-31, 48 h, read-out: Activity
NCI-H23 = test: Growth inhibition of human NCI-H23 cells assessed as cell growth at 10 uM after 48 hrs by sulforhodamine B assay; format: functional; settings: NCI-H23, 48 h, read-out: Activity
OVCAR-5 = test: Growth inhibition of human OVCAR5 cells assessed as cell growth at 10 uM after 48 hrs by sulforhodamine B assay; format: functional; settings: OVCAR-5, 48 h, read-out: Activity
SK-OV-3 = test: Growth inhibition of human SKOV3 cells after 48 hrs by sulforhodamine B assay; format: functional; settings: SK-OV-3, 48 h
CAKI-1 = test: Growth inhibition of human CAKI-1 cells after 48 hrs by sulforhodamine B assay; format: functional; settings: CAKI-1, 48 h
SW-620 = test: Growth inhibition of human SW620 cells assessed as cell growth at 10 uM after 48 hrs by sulforhodamine B assay; format: functional; settings: SW-620, 48 h, read-out: Activity
HT-29 = test: Growth inhibition of human HT-29 cells assessed as cell growth at 10 uM after 48 hrs by sulforhodamine B assay; format: functional; settings: HT-29, 48 h, read-out: Activity
HOP-92 = test: Growth inhibition of human HOP92 cells after 48 hrs by sulforhodamine B assay; format: functional, cell-based; settings: HOP-92, 48 h
BT-549 = test: Growth inhibition of human BT549 cells after 48 hrs by sulforhodamine B assay; format: functional; settings: BT-549, 48 h
HOP-62 = test: Growth inhibition of human HOP62 cells after 48 hrs by sulforhodamine B assay; format: functional; settings: HOP-62, 48 h
K562 = test: Growth inhibition of human K562 cells after 48 hrs by sulforhodamine B assay; format: functional; settings: K562, 48 h
T47D = test: Growth inhibition of human T47D cells after 48 hrs by sulforhodamine B assay; format: functional
COLO 205 = test: Growth inhibition of human COLO205 cells after 48 hrs by sulforhodamine B assay; format: functional; settings: COLO 205, 48 h
RPMI-8226 = test: Growth inhibition of human RPMI8226 cells assessed as cell growth at 10 uM after 48 hrs by sulforhodamine B assay; format: functional; settings: RPMI-8226, 48 h, read-out: Activity
MDA-MB-468 = test: Growth inhibition of human MDA-MB-468 cells assessed as cell growth at 10 uM after 48 hrs by sulforhodamine B assay; format: functional; settings: MDA-MB-468, 48 h, read-out: Activity
NCI-H522 [1] = test: Growth inhibition of human NCI-H522 cells assessed as cell growth at 10 uM after 48 hrs by sulforhodamine B assay; format: functional; settings: NCI-H522, 48 h, read-out: Activity
HCT-15 [2] = test: Growth inhibition of human HCT15 cells after 48 hrs by sulforhodamine B assay; format: functional; settings: HCT-15, 48 h
KM12 = test: Growth inhibition of human KM12 cells assessed as cell growth at 10 uM after 48 hrs by sulforhodamine B assay; format: functional; settings: KM12, 48 h, read-out: Activity
NCI-H522 [3] = test: Growth inhibition of human NCI-H522 cells after 48 hrs by sulforhodamine B assay; format: functional; settings: NCI-H522, 48 h
HL-60(TB) = test: Growth inhibition of human HL-60(TB) cells after 48 hrs by sulforhodamine B assay; format: functional; settings: HL-60, 48 h
OVCAR-3 = test: Growth inhibition of human OVCAR3 cells assessed as cell growth at 10 uM after 48 hrs by sulforhodamine B assay; format: functional; settings: OVCAR-3, 48 h, read-out: Activity
HCT-15 [4] = test: Growth inhibition of human HCT15 cells assessed as cell growth at 10 uM after 48 hrs by sulforhodamine B assay; format: functional; settings: HCT-15, 48 h, read-out: Activity
SF-539 = test: Growth inhibition of human SF539 cells after 48 hrs by sulforhodamine B assay; format: functional; settings: SF-539, 48 h
OVCAR-8 [5] = test: Growth inhibition of human OVCAR8 cells assessed as cell growth at 10 uM after 48 hrs by sulforhodamine B assay; format: functional; settings: OVCAR-8, 48 h, read-out: Activity
786-0 = test: Growth inhibition of human 786-0 cells after 48 hrs by sulforhodamine B assay; format: functional; settings: 786-0, 48 h
OVCAR-8 [6] = test: Growth inhibition of human OVCAR8 cells after 48 hrs by sulforhodamine B assay; format: functional; settings: OVCAR-8, 48 h
[7] = read-out: LC50 (the source's name)

Compound: O=C(Nc1cccc(-n2cc(-c3ccncc3)c(-c3ccc(Cl)c(O)c3)n2)c1)Nc1cc(C(F)(F)F)cc(C(F)(F)F)c1
- GI50 (LOX IMVI): 712 nM
- LC50 (LOX IMVI): 2750 nM
- TGI (LOX IMVI): 1400 nM
- GI50 (DU-145): 1250 nM
- LC50 (DU-145): 17400 nM
- TGI (DU-145): 5620 nM
- GI50 (NCI-H460): 413 nM
- LC50 (NCI-H460): 4860 nM
- TGI (NCI-H460): 1480 nM
- growth at 10 µM (M14): -37.2%
- GI50 (SK-MEL-28): 796 nM
- LC50 (SK-MEL-28): 3090 nM
- TGI (SK-MEL-28): 1570 nM
- growth at 10 µM (SK-MEL-2): -73.7%
- growth at 10 µM (MOLT-4): -18.5%
- growth at 10 µM (PC-3): -32.4%
- growth at 10 µM (UO-31): -34.4%
- growth at 10 µM (NCI-H23): -7.93%
- growth at 10 µM (OVCAR-5): -32.9%
- GI50 (SK-OV-3): 1350 nM
- TGI (SK-OV-3): 3810 nM
- CC50 (SK-OV-3; [7]): > 50000 nM
- GI50 (CAKI-1): 1010 nM
- TGI (CAKI-1): 4420 nM
- CC50 (CAKI-1; [7]): 26500 nM
- growth at 10 µM (SW-620): 3.32%
- growth at 10 µM (HT-29): -56%
- GI50 (HOP-92): 344 nM
- IC50 (HOP-92): 340 nM
- LC50 (HOP-92): 8660 nM
- TGI (HOP-92): 1750 nM
- GI50 (BT-549): 1090 nM
- LC50 (50% lethal concentration) (BT-549): 4110 nM
- TGI (BT-549): 2120 nM
- GI50 (HOP-62): 964 nM
- TGI (HOP-62): 1980 nM
- CC50 (HOP-62; [7]): 4070 nM
- GI50 (K562): 433 nM
- TGI (K562): 3930 nM
- CC50 (K562; [7]): > 50000 nM
- GI50 (T47D): 1820 nM
- TGI (T47D): 14000 nM
- CC50 (T47D; [7]): > 50000 nM
- GI50 (COLO 205): 853 nM
- LC50 (concentration killing 50% of cells) (COLO 205): 2920 nM
- TGI (COLO 205): 1580 nM
- growth at 10 µM (RPMI-8226): -10.9%
- growth at 10 µM (MDA-MB-468): -23.9%
- growth at 10 µM (NCI-H522 [1]): -50.1%
- GI50 (HCT-15 [2]): 474 nM
- LC50 (HCT-15 [2]): 21200 nM
- TGI (HCT-15 [2]): 3520 nM
- growth at 10 µM (KM12): -50.3%
- GI50 (NCI-H522 [3]): 724 nM
- LC50 (concentration killing 50% of cells) (NCI-H522 [3]): 12800 nM
- TGI (NCI-H522 [3]): 2510 nM
- GI50 (HL-60(TB)): 1500 nM
- TGI (HL-60(TB)): 13500 nM
- CC50 (HL-60(TB); [7]): > 50000 nM
- growth at 10 µM (OVCAR-3): -67.5%
- growth at 10 µM (HCT-15 [4]): -7.23%
- GI50 (SF-539): 765 nM
- LC50 (concentration killing 50% of cells) (SF-539): 2890 nM
- TGI (SF-539): 1490 nM
- growth at 10 µM (OVCAR-8 [5]): -12.2%
- GI50 (786-0): 1170 nM
- TGI (786-0): 3160 nM
- CC50 (786-0; [7]): 18000 nM
- GI50 (OVCAR-8 [6]): 563 nM
- TGI (OVCAR-8 [6]): 5920 nM
- CC50 (OVCAR-8 [6]; [7]): 43700 nM

Source: ChEMBL document CHEMBL2440076, “New triarylpyrazoles as broad-spectrum anticancer agents: design, synthesis, and biological evaluation” (Eur J Med Chem, 2013)
